# Experimental data taken from ChEMBL document CHEMBL1135456, “Inhibition of MIF bioactivity by rational design of pharmacological inhibitors of MIF tautomerase activity” (J Med Chem, 2002).
# Biological target: T1, Macrophage migration inhibitory factor (Homo sapiens, UniProt P14174)
# T1 sequence (P14174 whole entry): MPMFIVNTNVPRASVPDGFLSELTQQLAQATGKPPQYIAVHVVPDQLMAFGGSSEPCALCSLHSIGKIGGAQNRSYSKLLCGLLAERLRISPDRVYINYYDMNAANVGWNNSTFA
# Assay: Inhibition of human macrophage migration inhibitory factor tautomerase (MIF) activity
row,IC50,SMILES
1,> 100 µM,COC(=O)[C@H](CC(C)C)/N=C/c1ccc(O)cc1
2,> 100 µM,COC(=O)[C@H](C)/N=C/c1ccc(O)cc1
3,100 µM,COC(=O)[C@H](CO)/N=C/c1ccc(O)cc1
4,70 µM,CC[C@H](/N=C/c1ccc(O)cc1)C(=O)OC
5,100 µM,COC(=O)[C@H](CCSC)/N=C/c1ccc(O)cc1
6,10 µM,COC(=O)[C@@H](Cc1ccc(O)cc1)/N=C/c1ccc(O)cc1
7,50 µM,COC(=O)[C@@H](Cc1ccccc1)/N=C/c1ccc(O)cc1
